Experiments:
[1] = molecular target: T1, hERG current (hERG-transfected HEK293 cells) (Homo sapiens, UniProt Q12809); experiment: hERG whole cell patch clamp test; type: cell-based
T1 construct: host or cells: HEK293
Method: Using human ether-a-go-go related gene (hERG)-transfected HEK293 cells (Cytomyx Limited), an influence on hERG current was examined according to the whole cell patch clamp technique. The hERG-transfected HEK293 cells were passaged using a CO2 incubator (BNA-111, TABAI ESPEC CORP.) under the set conditions of 37° C., 5% CO2, saturated humidity. Culture containers used were Collagen Type I Coated 75 cm^2 flask (4123-010, AGC TECHNO GLASS CO., Ltd.) and Collagen Type I Coated 35 mm culture dish (4000-010, AGC TECHNO GLASS CO., Ltd.). The culture medium used was E-MEM (Eagle Minimum Essential Medium (Earle's Salts, Nikken biomedical laboratory) added with 10% FCS (Fetal calf serum, BioWest, L.L.C.) and 1% MEM Non-Essential Amino Acids Solution (NEAA, Invitrogen Corporation). Geneticin for the selection of hERG gene expressing cells was added thereto to a concentration of 400 μg/mL. As the cells for the measurement, 3×10^4 hERG-transfected HEK293 cells were plated on a 35 mm culture dish 4 to 7 days before measurement of the hERG current. The culture dish produced for the measurement contained the above-mentioned culture medium without geneticin (Invitrogen Corporation).
The highest evaluation concentration of each compound was determined from the highest concentration at which precipitation was not found in the standard extracellular fluid (NaCl: 140 mmol/L, KCl: 2.5 mmol/L, MgCl2: 2 mmol/L, CaCl2: 2 mmol/L, HEPES: 10 mmol/L, glucose: 10 mmol/L (adjusted to pH 7.4 with Tris-base)). As the application method, each solution to be applied was ejected from a Y-tube having a tip diameter of about 0.25 mm, which was adjacent (about 2 mm) to the cells, and applied to the cells. The ejection rate was about 0.4 mL/min.
The experiment was performed at room temperature under a phase contrast microscope. The 35 mm culture dish plated with the cells was set on a measurement apparatus, and the standard extracellular fluid was continuously applied to the cells from the Y-tube. A glass electrode for the measurement was filled with an intracellular fluid (Potassium Gluconate: 130 mmol/L, KCl: 20 mmol/L, MgCl2: 1 mmol/L, ATP-Mg: 5 mmol/L, EGTA: 3.5 mmol/L, HEPES: 10 mmol/L (adjusted to pH 7.2 with Tris-base)). A conventional whole cell patch clamp method was applied to the cells, and the maintenance electric potential was set to −80 mV. Under a fixed electric potential, the whole cell current was amplified by an amplifier for patch clamp (AXOPATCH-200B, Axon Instruments, Inc.), and the data was loaded into a computer (IMC-P642400, Intermedical Co., Ltd.) using a data acquisition analysis software (pCLAMP 9.2, Axon Instruments, Inc.).
The measurement of the hERG current was performed in the following two steps. In both cases, the hERG current was initiated by giving a command potential (maintenance electric potential −80 mV, prepulse+20 mV, 1.5 sec, test-pulse −50 mV, 1.5 sec).
Step (1): The above-mentioned command potential was given at 0.1 Hz for 2 min.
Step (2): The above-mentioned command potential was subjected to P/3 subtraction of pCLAMP 9.2 to remove leak current. This was repeated three times and an average thereof was taken as hERG current.
Subsequent to step (1), Step (2) was performed (about 3 min), and the maximum tail current obtained by applying a test-pulse to the hERG current obtained by the method of step (2) was taken as hERG current value. Hereafter, the operations of (1) and (2) were alternately repeated until completion of the experiment and the hERG current value was measured.
Stable hERG current value was recorded three times (about 10 min), and the standard extracellular fluid was instantaneously exchanged with each application fluid. The hERG current value was measured three times (about 10 min) in the same manner during perfusion of the application fluid, and the current value obtained by the 3rd measurement was taken as hERG current value after perfusion of the application fluid. […]

tissue PDH activity = experiment: Ex vivo PDH activation assay (liver and epididymal adipose tissue after oral administration); type: in vivo, Sprague-Dawley rats; conditions: 3 mg/kg, rat, mean ± standard deviation
Method: The action of test compound on tissue PDH activity was evaluated. NADH production was detected via p-iodonitrotetrazolium violet (INT)-coupled system to measure PDH activity.
Normal male Sprague-Dawley rats were randomly allocated to the vehicle group and the test compound groups. The vehicle (0.5% aqueous methylcellulose solution, 5 mL/kg) or the test compound was orally administered to the rats. At 5 or 20 hr after administration, the rats were anesthetized with an intraperitoneal injection of sodium pentobarbital (60 mg/kg), and liver slices and epididymal adipose tissues were collected.
(§1) To the liver slices were rapidly added 9 volumes of ice-cold homogenization buffer (0.25 mol/L sucrose, 5 mmol/L tris(hydroxymethyl)aminomethane hydrochloride (pH 7.5), 2 mmol/L EDTA), and the mixtures were homogenized using a Polytron homogenizer. The homogenates were centrifuged at 600×g, 4° C. for 10 min to obtain the supernatant. The supernatants (1 mL) were centrifuged at 16,000×g, 4° C. for 10 min to collect the precipitates. The precipitates were washed by resuspension in the homogenization buffer (1 mL) and centrifuged in the same manner. The precipitates were frozen with liquid nitrogen and stored at −80° C. as the liver mitochondrial fraction.
as §1, with “adipose tissues” for “liver slices”, “3” for “9”, “of an” for “of”, “buffer,” for “buffer (0.25 mol/L sucrose, 5 mmol/L tris(hydroxymethyl)aminomethane hydrochloride (pH 7.5), 2 mmol/L EDTA),”, “supernatants” for “supernatants (1 mL)”, “adipose tissue” for “liver”
The mitochondrial fractions were thawed and suspended with the sample buffer (0.25 mol/L sucrose, 20 mmol/L tris(hydroxymethyl)aminomethane hydrochloride (pH 7.5), 50 mmol/L potassium chloride, and 1 mL/L 4-(1,1,3,3-tetramethylbutyl)phenyl-polyethylene glycol (Triton X-100)). Active PDH activity (PDHa activity) and total PDH activity (PDHt activity) were measured to evaluate the PDH activity. For the measurement of the PDHt activity, equal amounts of the mitochondrial suspension and the activation buffer (0.25 mol/L sucrose, 20 mmol/L tris(hydroxymethyl)aminomethane hydrochloride (pH 7.5), 50 mmol/L potassium chloride, 1 mL/L Triton X-100, 4 mmol/L calcium chloride, 40 mmol/L magnesium chloride, 10 mmol/L sodium dichloroacetate) were mixed, and the mixtures were incubated at 37° C. for 10 min. Forty microliters of the mitochondrial suspensions diluted with a sample buffer were added to a 96-well microplate for activity measurement and blank measurement. Then 180 μL of the reaction mixture (0.056 mmol/L potassium phosphate buffer (pH 7.5), 5.6 mmol/L DL-carnitine, 2.8 mmol/L NAD, 0.22 mmol/L thiamin pyrophosphate, 0.11 mmol/L Coenzyme A, 1.1 mL/L Triton X-100, 1.1 mmol/L magnesium chloride, 1.1 g/L bovine serum albumin, 0.67 mmol/L INT, 7.2 μmol/L phenazine methosulfate, 28 mmol/L sodium oxamate) was added to each well, and then 20 μL of 50 mmol/L sodium pyruvate for activity measurement or water for blank measurement were added. The mixtures were incubated at room temperature under shading. The absorbances at 500-750 nm, which were attributable to reduction of INT, the final electron acceptor, were measured using a microplate reader over time and the changes in the absorbance were calculated. The PDH activity was calculated by subtraction of the change in absorbance of the blank well from that of the activity measurement well. The percentage of the PDHa activity to the PDHt activity was calculated and taken as an index of the PDH activation.

[2] = adipose tissue, 5 hr after oral administration
[3] = adipose tissue, 20 hr after oral administration
[4] = liver, 5 hr after oral administration
[5] = liver, 20 hr after oral administration

T1 sequence (Q12809 whole entry): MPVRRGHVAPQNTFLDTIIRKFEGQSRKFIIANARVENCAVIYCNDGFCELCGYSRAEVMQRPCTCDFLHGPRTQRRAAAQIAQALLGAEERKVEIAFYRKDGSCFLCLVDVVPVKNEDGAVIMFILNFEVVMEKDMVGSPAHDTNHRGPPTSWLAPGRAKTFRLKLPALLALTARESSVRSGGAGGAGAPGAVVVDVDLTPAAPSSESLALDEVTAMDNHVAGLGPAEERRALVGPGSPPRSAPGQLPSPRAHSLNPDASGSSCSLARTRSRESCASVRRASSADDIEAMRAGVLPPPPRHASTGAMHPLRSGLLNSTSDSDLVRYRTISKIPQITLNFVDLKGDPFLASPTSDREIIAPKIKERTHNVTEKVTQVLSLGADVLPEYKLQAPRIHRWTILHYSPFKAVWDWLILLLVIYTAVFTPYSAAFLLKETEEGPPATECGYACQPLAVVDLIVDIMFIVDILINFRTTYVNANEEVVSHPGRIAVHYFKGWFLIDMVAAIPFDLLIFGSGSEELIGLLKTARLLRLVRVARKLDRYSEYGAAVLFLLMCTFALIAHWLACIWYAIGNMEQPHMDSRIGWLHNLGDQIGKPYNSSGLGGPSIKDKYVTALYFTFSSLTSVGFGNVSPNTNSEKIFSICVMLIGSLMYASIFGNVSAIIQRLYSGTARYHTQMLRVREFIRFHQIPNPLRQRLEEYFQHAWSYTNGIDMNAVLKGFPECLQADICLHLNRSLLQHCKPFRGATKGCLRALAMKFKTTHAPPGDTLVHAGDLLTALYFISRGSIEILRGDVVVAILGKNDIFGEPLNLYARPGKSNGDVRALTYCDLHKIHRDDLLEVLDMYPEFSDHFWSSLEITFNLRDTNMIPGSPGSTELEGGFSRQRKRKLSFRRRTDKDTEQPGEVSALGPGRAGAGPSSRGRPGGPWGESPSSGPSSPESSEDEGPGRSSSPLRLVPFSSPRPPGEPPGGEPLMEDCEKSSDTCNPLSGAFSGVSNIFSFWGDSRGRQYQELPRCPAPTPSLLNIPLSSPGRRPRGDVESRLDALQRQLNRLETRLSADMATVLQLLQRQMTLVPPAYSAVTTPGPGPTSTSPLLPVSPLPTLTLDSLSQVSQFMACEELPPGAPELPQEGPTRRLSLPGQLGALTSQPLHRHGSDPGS

Row | Compound | hERG inhibition rate (%) ([1]; concentration 3 μmol/L) | hERG inhibition rate (%) ([1]; concentration 30 μmol/L) | PDHa activity (% PDHt activity) (tissue PDH activity; [2]) | PDHa activity (% PDHt activity) (tissue PDH activity; [3]) | PDHa activity (% PDHt activity) (tissue PDH activity; [4]) | PDHa activity (% PDHt activity) (tissue PDH activity; [5])
1 | CC(C)(C(N)=O)n1cc(-c2cc(F)cc3c2-c2ccccc2[C@]3(O)C(F)(F)F)cn1 [compound (D), 2-{4-[(9R)-2-Fluoro-9-hydroxy-9-(trifluoromethyl)-9H-fluoren-4-yl]-1H-pyrazol-1-yl}-2-methylpropanamide] | 9.4 | 67.5 | 43 ± 7 | 24 ± 3 | 41 ± 15 | 20 ± 1
2 | CC(C)(O)COc1cc(-c2cnn(CCO)c2)c2c(c1)[C@@](O)(C(F)(F)F)c1ccccc1-2 [compound (C), (9R)-4-[1-(2-Hydroxyethyl)-1H-pyrazol-4-yl]-2-(2-hydroxy-2-methylpropoxy)-9-(trifluoromethyl)-9H-fluoren-9-ol] | 11.5 | 69.0 | 53 ± 4 | 28 ± 7 | 44 ± 5 | 13 ± 3

— patent publication US20150025120A1, “PYRAZOLE-ALCOHOL COMPOUNDS AND PHARMACEUTICAL USE THEREOF” (JAPAN TOBACCO INC., priority 2013, published 2015)
